From ChEMBL document CHEMBL3044901, “Synthesis and insecticidal activity of N-oxydihydropyrroles: 4-hydroxy-3-mesityl-5,5-dimethyl derivatives with various substituents at the 1-position” (Biosci Biotechnol Biochem, 2002)

Assays:
Cucumis sativus = test: Phytotoxicity against Cucumis sativus (cucumber) exposed to compound spraying at […] measured 7 days post compound treatment by post-emergence glasshouse test; format: organism-based; conditions: in vivo, other, 168 h
Nilaparvata lugens [1] = test: Insecticidal activity against Nilaparvata lugens (brown planthopper) third-instar larvae reared on rice seedlings assessed as insect mortality at 1 ppm measured 5 days post compound treatment by systemic exposure test; format: functional; conditions: 120 h
Nilaparvata lugens [2] = test: Insecticidal activity against Nilaparvata lugens (brown planthopper) third-instar larvae reared on rice seedlings assessed as insect mortality at 10 ppm measured 5 days post compound treatment by systemic exposure test; format: functional; conditions: 120 h
Myzus persicae [3] = test: Insecticidal activity against Myzus persicae (green peach aphid) infested Brassica campestris stems followed by leaf exposure to test compound spraying assessed as insect mortality at 10 ppm measured 5 days post compound treatment by contact exposure test; format: functional; conditions: 120 h
Oryza sativa = test: Phytotoxicity against Oryza sativa exposed to compound spraying at […] measured 7 days post compound treatment by post-emergence glasshouse test; format: organism-based; conditions: in vivo, other, 168 h
Nilaparvata lugens [4] = test: Insecticidal activity against Nilaparvata lugens (brown planthopper) third-instar larvae contacted with rice stems pre-exposed to compound assessed as insect mortality at 1 ppm measured 5 days post insect release by contact exposure test; format: functional; conditions: 120 h
Myzus persicae [5] = test: Insecticidal activity against Myzus persicae (green peach aphid) infested Brassica campestris stems followed by cut stem exposure to test compound assessed as insect mortality at 1 ppm measured 5 days post compound treatment by systemic exposure test; format: functional; conditions: 120 h
Myzus persicae [6] = test: Insecticidal activity against Myzus persicae (green peach aphid) infested Brassica campestris stems followed by cut stem exposure to test compound assessed as insect mortality at 0.1 ppm measured 5 days post compound treatment by systemic exposure test; format: functional; conditions: 120 h
Myzus persicae [7] = test: Insecticidal activity against Myzus persicae (green peach aphid) infested Brassica campestris stems followed by leaf exposure to test compound spraying assessed as insect mortality at 1 ppm measured 5 days post compound treatment by contact exposure test; format: functional; conditions: 120 h
Nilaparvata lugens [8] = test: Insecticidal activity against Nilaparvata lugens (brown planthopper) third-instar larvae contacted with rice stems pre-exposed to compound assessed as insect mortality at 10 ppm measured 5 days post insect release by contact exposure test; format: functional; conditions: 120 h

SMILES | Phytotoxicity (Cucumis sativus) [%] | mortality at 1 ppm (Nilaparvata lugens [1]) [%] | mortality at 10 ppm (Nilaparvata lugens [2]) [%] | mortality at 10 ppm (Myzus persicae [3]) [%] | Phytotoxicity (Oryza sativa) [%] | mortality at 1 ppm (Nilaparvata lugens [4]) [%] | mortality at 1 ppm (Myzus persicae [5]) [%] | mortality at 0.1 ppm (Myzus persicae [6]) [%] | mortality at 1 ppm (Myzus persicae [7]) [%] | mortality at 10 ppm (Nilaparvata lugens [8]) [%]
COCCON1C(=O)C(c2c(C)cc(C)cc2C)=C(O)C1(C)C | 60 | 90 | 90 | 90 | 90 | 30 | 100 | 100 | 0 | 90
COCCOCON1C(=O)C(c2c(C)cc(C)cc2C)=C(O)C1(C)C | 100 | 30 | 100 | 90 | 100 | 30 | 100 | 100 | 0 | 60
CSCON1C(=O)C(c2c(C)cc(C)cc2C)=C(O)C1(C)C | 0 | 30 | 100 | 0 | 90 | 30 | 90 | 30 | 0 | 30
Cc1cc(C)c(C2=C(OC(=O)CC(C)(C)C)C(C)(C)N(O)C2=O)c(C)c1 | 0 | 60 | 90 | 0 | 30 | 90 | 0 | 0 | 0 | 100
CON1C(=O)C(c2c(C)cc(C)cc2C)=C(OC(=O)CC(C)(C)C)C1(C)C | 60 | 30 | 90 | 30 | 30 | 90 | 0 | 0 | 0 | 90
Cc1cc(C)c(C2=C(OC(=O)CC(C)(C)C)C(C)(C)N(OCC#N)C2=O)c(C)c1 | 60 | 60 | 100 | 100 | 0 | 90 | 100 | 0 | 0 | 100
COCON1C(=O)C(c2c(C)cc(C)cc2C)=C(OC(=O)CC(C)(C)C)C1(C)C | 90 | 30 | – | 100 | 100 | 30 | 100 | 100 | 100 | 100
CCOCON1C(=O)C(c2c(C)cc(C)cc2C)=C(OC(=O)CC(C)(C)C)C1(C)C | 60 | 0 | 100 | 100 | 0 | 100 | 100 | 60 | 100 | 100
CC(=O)ON1C(=O)C(c2c(C)cc(C)cc2C)=C(OC(=O)CC(C)(C)C)C1(C)C | 0 | 30 | – | 0 | 60 | 60 | 0 | 0 | 0 | –
Cc1cc(C)c(C2=C(OC(=O)CC(C)(C)C)C(C)(C)N(OC(=O)C(C)(C)C)C2=O)c(C)c1 | 0 | 30 | – | 0 | 0 | 0 | 0 | 0 | 0 | –
Cc1cc(C)c(C2=C(OC(=O)CC(C)(C)C)C(C)(C)N(OC(=O)CC(C)(C)C)C2=O)c(C)c1 | 0 | 0 | – | 60 | 0 | 0 | 0 | 0 | 0 | –
COC(=O)ON1C(=O)C(c2c(C)cc(C)cc2C)=C(OC(=O)CC(C)(C)C)C1(C)C | 0 | 30 | – | 0 | 60 | 60 | 0 | 0 | 0 | –
Cc1cc(C)c(C2=C(OC(=O)CC(C)(C)C)C(C)(C)N(OS(C)(=O)=O)C2=O)c(C)c1 | 0 | 0 | – | 0 | 0 | 0 | 0 | 0 | 0 | –
Cc1cc(C)c(C2=C(OC(=O)CC(C)(C)C)C(C)(C)N(OC(=O)N(C)C)C2=O)c(C)c1 | 0 | 30 | – | 0 | 0 | 0 | 0 | 0 | 0 | –
CON1C(=O)C(c2c(C)cc(C)cc2C)=C(O)C1(C)C | 60 | 100 | 100 | 60 | 100 | 30 | 100 | 0 | 0 | 90
CCON1C(=O)C(c2c(C)cc(C)cc2C)=C(O)C1(C)C | 0 | 60 | 90 | 0 | 100 | 60 | 100 | 60 | 0 | 100
CCCON1C(=O)C(c2c(C)cc(C)cc2C)=C(O)C1(C)C | 0 | 60 | 100 | 30 | 100 | 30 | 90 | 90 | 0 | 100
Cc1cc(C)c(C2=C(O)C(C)(C)N(OC(C)C)C2=O)c(C)c1 | 0 | 30 | 90 | 0 | 100 | 30 | 60 | 0 | 0 | 60
C=CCON1C(=O)C(c2c(C)cc(C)cc2C)=C(O)C1(C)C | 0 | 60 | 100 | 100 | 100 | 60 | 100 | 60 | 0 | 90
C#CCON1C(=O)C(c2c(C)cc(C)cc2C)=C(O)C1(C)C | 0 | 90 | 90 | 90 | 100 | 60 | 100 | 60 | 0 | 100
Cc1cc(C)c(C2=C(O)C(C)(C)N(O)C2=O)c(C)c1 | 60 | 0 | – | 60 | 90 | 0 | 100 | 0 | 0 | 0
Cc1cc(C)c(C2=C(O)C(C)(C)N(OCC3CCCCC3)C2=O)c(C)c1 | 0 | 60 | 60 | 0 | 60 | 30 | 60 | 0 | 0 | 90
Cc1cc(C)c(C2=C(O)C(C)(C)N(OCc3ccccc3)C2=O)c(C)c1 | 0 | 30 | 100 | 0 | 30 | 30 | 0 | 0 | 0 | 0
COCON1C(=O)C(c2c(C)cc(C)cc2C)=C(O)C1(C)C | 90 | 60 | 100 | 100 | 100 | 60 | 100 | 100 | 0 | 100
